Here are results for 32 compounds from PubChem BioAssay AID434987 (Southern Research Specialized Biocontainment Screening …, 2010).

One may read the IC50 as the concentration needed to halve the response being measured. For orientation: IC90 means the concentration needed for an effect of 90%. A higher IC90 goes with a need for much substance.

Molecules are shown by their SMILES. The source made the active and inactive calls. The rule behind the calls is not given here.

This test has as its system M. tuberculosis H37Rv growth inhibition with meropenem. As to the kind of experiment: dose response, H37Rv, with and without meropenem (AID 434987).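 Note: growth over 7 days at 37 °C before Alamar Blue read on day 9.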
[1] abbreviates: M. tuberculosis H37Rv growth inhibition, measured here: IC50 without meropenem.
The mark [2] stands for this setting: M. tuberculosis H37Rv growth inhibition, measured here: IC90 without meropenem.
[3] abbreviates: measured here: IC90 with meropenem.

`Cn1nc(-c2ccc(OCC(=O)NCC3CCCO3)cc2)c2ccccc2c1=O` (stereo not drawn): the IC50 is > 100 µM (inactive). Moreover, the IC50 under setting [1] is greater than 100 µM. The same compound returned an IC90 under setting [2] greater than 100 µM. The IC90 under setting [3] is greater than 100 µM.
In the case of `C[C@@H]1CC=C[C@H]2[C@H]1C(=O)N(Cc1ccccc1)[C@H]2c1ccc(/C=C/c2ccccc2)cc1F`, the IC50 was > 100 µM (inactive). In addition, the IC50 under setting [1] is greater than 100 µM. Also, the IC90 under setting [2] was greater than 100 µM. The concentration for an effect of 90% (IC90) under setting [3] is greater than 100 µM.
Turning to `CCOC(=O)C1CCN(c2ccc(C(N)=O)cc2[N+](=O)[O-])CC1`, the IC50 is 16.3 µM. The same compound returned an IC50 under setting [1] of 55.2 µM. Moreover, under setting [2], the IC90 is greater than 100 µM. Also, the 90% effect concentration (IC90) under setting [3] is greater than 100 µM.
`CSc1ccccc1NC(=O)c1c(Br)cnn1C`: the IC50 was 28.4 µM. The IC50 under setting [1] turned out to be 82.7 µM. Also, under setting [2], the concentration for an effect of 90% (IC90) was greater than 100 µM. Further, the IC90 under setting [3] is greater than 100 µM.
As for `O=C(CN1CCC(O)(c2ccc3c(c2)OCO3)CC1)OC1CCCCC1`, the IC50 is 12.8 µM. The same compound showed an IC50 under setting [1] of 38.5 µM. For the same compound, under setting [2], the IC90 was greater than 100 µM. Moreover, the concentration for an effect of 90% (IC90) under setting [3] came to 35.3 µM.
The corresponding values for `O=C(COC(=O)C1CC1)c1c[nH]c2ccccc12` are 0.999 µM, greater than 100 µM, greater than 100 µM and greater than 100 µM.
The corresponding values for `O=C(CN1CCN(c2ccccn2)CC1)Nc1ccc(Cl)c(C(F)(F)F)c1` are 58.5 µM (inactive), 90.1 µM, greater than 100 µM and greater than 100 µM.
The corresponding values for `O=C1CCNc2c(Cl)cccc21` are > 100 µM (inactive), greater than 100 µM, greater than 100 µM and greater than 100 µM.
Consider `CCCCN(CCCC)C(=S)N/N=C/c1c(C)[nH]n(-c2ccccc2)c1=O`, for which the IC50 is > 100 µM (inactive). Under setting [1], the IC50 is greater than 100 µM. Under setting [2], this compound registered an IC90 greater than 100 µM. This compound also came in with an IC90 under setting [3] greater than 100 µM.
As to `COc1cc2c(cc1OC)C(c1ccccc1)CC2=O` (stereo not drawn), the IC50 is 43.3 µM (inactive). Moreover, the IC50 under setting [1] is 94 µM. The same compound returned a concentration for an effect of 90% (IC90) under setting [2] greater than 100 µM. The IC90 under setting [3] was greater than 100 µM.
On to `O=C(/C=C/c1ccc2c(c1)OCO2)Nc1nc2ccccc2s1`, for which the IC50 is > 100 µM (inactive). For the same compound, under setting [1], the IC50 is greater than 100 µM. Moreover, under setting [2], the IC90 was greater than 100 µM. Under setting [3], this compound gave an IC90 greater than 100 µM.
Turning to `COc1ccc(-c2cc(-c3ccc(OC)cc3)nc(-c3ccc4c(c3)NC(=O)CO4)c2)cc1`, the IC50 is > 100 µM (inactive). Also, the IC50 under setting [1] was greater than 100 µM. Under setting [2], this compound returned an IC90 greater than 100 µM. Besides, the IC90 under setting [3] was greater than 100 µM.
Regarding `COC(=O)c1ccc(/C=N/Nc2nc(-c3ccc(C)cc3)cs2)cc1`, the IC50 was 10.9 µM. This compound also displayed an IC50 under setting [1] greater than 100 µM. For the same compound, the IC90 under setting [2] is greater than 100 µM. Further, under setting [3], the IC90 is greater than 100 µM.
`CC(=O)Nc1ccc(SCC(=O)c2cc(C)n(C)c2C)cc1`: the IC50 was 47 µM (inactive). Also, the IC50 under setting [1] was found to be 57.3 µM. For the same compound, under setting [2], the IC90 is greater than 100 µM. In addition, the IC90 under setting [3] came out at 53.6 µM.
For `Cc1ccccc1OCC(=O)Nc1ccccc1-c1ccccc1` the same measures were 6.04 µM, greater than 100 µM, greater than 100 µM and greater than 100 µM.
In the case of `N=C1C(c2nc3ccccc3[nH]2)=C(O)CN1c1ccc(F)cc1`, the IC50 is 7.73 µM. The IC50 under setting [1] was greater than 100 µM. In addition, under setting [2], the IC90 is greater than 100 µM. The compound also came in with an IC90 under setting [3] greater than 100 µM.
As to `CC1(C)C[C@@H]1C(=O)N/C(=C\CCCCSC[C@H](N)C(=O)O)C(=O)O`, the IC50 was > 100 µM (inactive). The compound also displayed an IC50 under setting [1] greater than 100 µM. Under setting [2], this compound displayed an IC90 greater than 100 µM. Further, under setting [3], the IC90 is greater than 100 µM.
Regarding `NNC(=O)c1cccc(O)c1`, the 50% inhibitory concentration (IC50) was 9.97 µM. The compound also showed an IC50 under setting [1] of 79.5 µM. In addition, the IC90 under setting [2] is greater than 100 µM. Further, the IC90 under setting [3] came to 73.9 µM.
For `COc1ccc(Cn2c(C)nc3c(c(=O)c4ccccc4n3C)c2=O)cc1`, the IC50 was > 100 µM (inactive). Under setting [1], the IC50 is greater than 100 µM. The IC90 under setting [2] is greater than 100 µM. Under setting [3], the IC90 is greater than 100 µM.
Turning to `CCc1sc2nc(SCC(=O)Nc3cc(C)on3)n(-c3cccc(OC)c3)c(=O)c2c1C`, the IC50 is > 100 µM (inactive). Under setting [1], this compound registered an IC50 greater than 100 µM. The IC90 under setting [2] was greater than 100 µM. This compound had an IC90 under setting [3] greater than 100 µM.
For `C/C(=N/NC(=O)c1cccs1)c1ccc(NC(=O)COc2ccc(Cl)cc2)cc1`, the IC50 was > 100 µM (inactive). Under setting [1], the IC50 was greater than 100 µM. In addition, the 90% effect concentration (IC90) under setting [2] was greater than 100 µM. Moreover, under setting [3], the IC90 is greater than 100 µM.
With `CCn1c(SCc2nc(-c3cccs3)no2)nnc1-c1c[nH]c2ccccc12`, the IC50 was > 100 µM (inactive). Further, the IC50 under setting [1] is greater than 100 µM. In addition, the IC90 under setting [2] was greater than 100 µM. Under setting [3], the concentration for an effect of 90% (IC90) is greater than 100 µM.
Consider `O=C(O)CCC/C=C\C[C@@H]1[C@@H](/C=C/[C@@H](O)COc2cccc(Cl)c2)[C@H](O)C[C@@H]1O`, for which the IC50 was > 100 µM (inactive). For the same compound, under setting [1], the IC50 is greater than 100 µM. Moreover, under setting [2], the concentration for an effect of 90% (IC90) was greater than 100 µM. Under setting [3], the IC90 is greater than 100 µM.
With `Cc1nc2sc3c(c2c2nnc(SCC(=O)NCc4ccco4)n12)CCCC3`, the IC50 was 82.6 µM (inactive). Under setting [1], this compound came in with an IC50 of 80.4 µM. The same compound registered an IC90 under setting [2] greater than 100 µM. The compound further yielded an IC90 under setting [3] greater than 100 µM.
With `COc1ccc(NC(=O)COC(=O)Cc2ccc(-c3ccccc3)cc2)c(OC)c1`, the IC50 is > 100 µM (inactive). Moreover, the IC50 under setting [1] is greater than 100 µM. Under setting [2], the IC90 was greater than 100 µM. Moreover, under setting [3], the IC90 is greater than 100 µM.
`CN=C(Nc1cc(Cl)ccc1Cl)SC1CC(=O)N(c2ccc(C(=O)OC)cc2)C1=O` (stereo not drawn): the IC50 is > 100 µM (inactive). Under setting [1], this compound registered an IC50 greater than 100 µM. For the same compound, the IC90 under setting [2] is greater than 100 µM. The IC90 under setting [3] was greater than 100 µM.
With `Cc1ccc(C(=O)OCCN2CCN(c3ncc(C(F)(F)F)cc3Cl)CC2)cc1`, the IC50 was > 100 µM (inactive). Besides, the IC50 under setting [1] was greater than 100 µM. Further, the IC90 under setting [2] was greater than 100 µM. The compound further returned an IC90 under setting [3] greater than 100 µM.
`CC(=O)c1ccccc1OCCOc1ncnc2sccc12`: the IC50 is > 100 µM (inactive). Under setting [1], this compound displayed an IC50 greater than 100 µM. The IC90 under setting [2] was greater than 100 µM. The same compound returned an IC90 under setting [3] greater than 100 µM.
Take `Cc1cccc(N2CCN(CC3CCCCC3)CC2)c1C`: the IC50 is 48.5 µM (inactive). The compound also had an IC50 under setting [1] of 90.5 µM. Moreover, the 90% effect concentration (IC90) under setting [2] is greater than 100 µM. Further, the IC90 under setting [3] is 53.2 µM.
With `Cc1cccc(NC(=O)c2cc3ccccc3c(=O)o2)n1`, the IC50 is 37.9 µM. Under setting [1], this compound came in with an IC50 greater than 100 µM. This compound also had an IC90 under setting [2] greater than 100 µM. The compound also registered an IC90 under setting [3] greater than 100 µM.
As for `Cc1ccc(-n2c(SCC(=O)NCc3ccco3)nc3sc4c(c3c2=O)CC(C)(C)SC4)cc1`, the IC50 is > 100 µM (inactive). In addition, the half-inhibitory concentration (IC50) under setting [1] is greater than 100 µM. The same compound had an IC90 under setting [2] greater than 100 µM. Besides, the IC90 under setting [3] is greater than 100 µM.
For `Cc1ccc(O)c(-c2cc(-c3ccccc3F)[nH]n2)c1`, the IC50 is > 100 µM (inactive). Under setting [1], this compound registered an IC50 greater than 100 µM. Moreover, the 90% effect concentration (IC90) under setting [2] is greater than 100 µM. For the same compound, the 90% effect concentration (IC90) under setting [3] was greater than 100 µM.
